Values of other authors in publication PMC4851381, “High Throughput Screening Identifies Novel Lead Compounds with Activity against Larval, Juvenile and Adult Schistosoma mansoni” (PLoS Neglected Tropical Diseases, 2016).

What was measured:
[1] = tested on: Cyp2C19; set-up: method as in ChEMBL; conditions: ref ChEMBL; cited from earlier work
[2] = tested on: Cyp3A4; set-up: method as in ChEMBL; conditions: ref ChEMBL; cited from earlier work

Question: Which AC50 [1] does the source give for `Cc1[nH]c2ccccc2c1C(c1ccccn1)N1CCC(C)CC1` (centres unmarked) [CHEMBL1517121] here?
Answer: Its AC50 is 13 µM.

Question: And the AC50 [2]?
Answer: Its AC50 is 2 µM.
